Here are results for two compounds from ChEMBL document CHEMBL3044752, “Isobutyl amides--potent compounds for controlling Diatraea saccharalis” (2009).

Structures are written as SMILES.

The subject of the experiment is Diatraea saccharalis. Kind of experiment: Insecticidal activity against fourth-instar Diatraea saccharalis assessed as larval mortality measured per insect after 24 hr exposure. The class given is functional.

For `CCCCC/C=C/C=C/C(=O)NCC(C)C` [PELLITORIN], the LD50 was 91.19 µg and the LD90 amounted to 184.56 µg.
`CC(C)CNC(=O)/C=C/CCc1ccc2c(c1)OCO2` [4,5-DIHYDROPIPERLONGUMININE]: the LD50 amounted to 92.83 µg and the LD90 is 176.5 µg.
